According to paper PMC10711279 (Frontiers in Pharmacology, 2023):

Columns and labels:
[1] = design: method as in Turner and Merlis, 1959; details: dose range 5–20 mg; ref Turner and Merlis, 1959; cited from earlier work
[2] = ref Vogt et al., 2023; cited from earlier work
[3] = Blood plasma levels (LC-MS/MS) after DMT/harmine administration
Procedure: Blood samples were collected from the left antecubital vein at −30 (baseline), −15, 0, 15, 30, 45, 60, 90, 120, 180, 240, 300 and 360 min after the first DMT administration for analysis of blood plasma levels of harmine, DMT and the two major DMT metabolites 3-indole acetic acid (3-IAA) and N-methyl-tryptamine (NMT). […] Blood samples were immediately centrifuged for 10 min at 2000 RCF. Then, plasma was transferred to Eppendorf tubes, shock-frozen in liquid nitrogen (∼-196°C), and stored at −80°C until assayed.
For the sample preparation 200 µL of plasma were spiked with 50 µL internal standard (IS) mixture (40 ng/mL DMT-d6 and harmine-d3) and 50 µL methanol (MeOH). Proteins were precipitated by adding 400 µL of acetonitrile (ACN). The samples were shaken for 10 min and centrifuged for 5 min at 10,000 rpm. 350 μL of the supernatant was transferred into an auto-sampler vial, evaporated to dryness under a gentle stream of nitrogen at room temperature and reconstituted in 100 µL eluent-mixture (98:2, v/v). External calibrator and quality control (QC) samples were prepared accordingly, replacing the MeOH with a calibrator or QC solution mixtures. Calibrator and QC samples containing 3-IAA were prepared separately, replacing plasma with water. The calibration ranges were 0.5–500 ng/mL for DMT and DMT-N-oxide, 2.5–120 ng/mL for harmine, 1–80 ng/mL for harmol, 0.015–10 ng/mL for NMT and 35–3,000 ng/mL for 3-IAA.
Samples were analyzed on an ultra-high performance liquid chromatography (UHPLC) system (Thermo Fisher, San Jose, CA) coupled to a linear ion trap quadrupole mass spectrometer 5,500 (Sciex, Darmstadt, Germany). The mobile phases consisted of a mixture of water (eluent A) and ACN (eluent B), both containing 0.1% formic acid (v/v). Using a Kinetex C18 column 50 × 2.1 mm, 2.6 µm (Phenomenex, Aschaffenburg, Germany), the flow rate was set to 0.5 mL/min with the following gradient: starting conditions 98% eluent A, decreasing to 70% within 4 min, followed by a quick decrease to 5% within 1 min, holding for 0.5 min and returning to starting conditions for 1.5 min, resulting in a total runtime of 7 min. The mass spectrometer was operated in positive electrospray ionization mode with scheduled multiple reaction monitoring. The following transitions of precursor ions to product ions were selected as quantifier ions: DMT m/z 189→115, DMT-N-oxide m/z 205→117, harmine m/z 213→169, harmol m/z 199→131, NMT m/z 175→144 and 3-IAA m/z 176→103.

[4] = in vivo; cited from earlier work
[5] = day 1, 250 mg oral harmine + 30 mg oral DMT
[6] = day 2, 250 mg oral harmine + 50 mg oral DMT
[7] = day 3, 150 mg buccal harmine + max 50 mg intranasal DMT
[8] = day 4, 200 mg buccal harmine + max 90 mg intranasal DMT

In the case of `CN(C)CCc1c[nH]c2ccccc12` [DMT freebase, N,N-dimethyltryptamine], the “Effect of intranasal administration” value [1] is given as “ineffective”.

For `CN(C)CCc1c[nH]c2ccccc12` [DMT, N,N-dimethyltryptamine], the Plasma elimination half-life [2] is given as 5 to 10 min, the “Peak of the mean plasma concentrations” value [3, 5] is given as 27.9 ± 15.5 ng/mL and the “Peak of the mean plasma concentrations” value [3, 6] is given as 23.6 ± 11.9 ng/mL. The “Peak of the mean plasma concentrations” value [3, 7] was 23.9 ± 5.0 ng/mL and the “Peak of the mean plasma concentrations” value [3, 8] was 33.1 ± 9.3 ng/mL.

For `CCN(CC)C(=O)[C@@H]1C=C2c3cccc4[nH]cc(c34)C[C@H]2N(C)C1` [LSD], the Duration of action [4] is listed as 10 to 12 h.

In the case of `COc1ccc2c(c1)[nH]c1c(C)nccc12` [harmine], the “Peak of the mean plasma concentrations” value [3, 5] is reported as 125.5 ± 111.2 ng/mL, the “Peak of the mean plasma concentrations” value [3, 6] is reported as 104.8 ± 100.5 ng/mL and the “Peak of the mean plasma concentrations” value [3, 7] is reported as 93.9 ± 33.5 ng/mL. For the same compound, the “Peak of the mean plasma concentrations” value [3, 8] was 132.4 ± 111.6 ng/mL and the Tmax ([3]; human, plasma, po) was 1 to 4.5 h.

In the case of `CN(C)CCc1c[nH]c2cccc(OP(=O)(O)O)c12` [psilocybin], the Duration of action [4] is listed as 4 to 6 h.
